Measured values taken from patent US20120101148A1, “LIPID FORMULATION” (ALNYLAM PHARMACEUTICALS, INC., priority 2009, published 2012).

Test: Stability assay of Lipid A liposomes (LC-ELSD)
Conditions: for degradation of Lipid A in liposome formulation containing antioxidant: pH=5, 37° C., day 5
Procedure: The stability of lipids in formulation were performed and monitored using the following HPLC and ELSD (Evaporative Light Scattering Detector) conditions.
Column: Waters Xbridge C18 2.5 μm 2.1×150 mm reversed phase column
Model: Polymer lab ELS 2100
Evaporator temperature: 90
Nebuliser temperature: 60
Fresh Lipid A liposome samples with loaded siRNA AD1661 were prepared as described herein. These Lipid A liposome samples were incubated in 100 mM NaOAc buffer (pH=5) at 37° C., and were subject to LC-ELSD analysis every other day.
In order to examine whether degradation of Lipid A can be prevented by addition of radical scavengers such as butylated hydroxytoluene (BHT or butylhydroxytoluene), Lipid A-containing liposome formulation LNP08 with lipids molar ratio of 60/7.5/31/1.5 (lipid A/DSPC/Cholesterol/PEG-C14 lipid) loaded with siRNA AD1661 containing BHT was tested in the stability assay as described above. These samples were subject to LC-ELSD analysis at day 5.
In order to examine whether the degradation of Lipid A can be prevented by antioxidants such as vitamin E, Lipid A-containing liposome formulation LNP09 loaded with siRNA AD1661 containing various amount of vitamin E were tested in the stability assay as described above. These samples were subject to LC-ELSD analysis at day 5. Chromatographs comparing the stability of various Lipid A liposome formulations with or without vitamin E were shown in FIG. 34.

Row | degradation of Lipid A in liposome formulation containing antioxidant | degradation of Lipid A, higher amount of antioxidant (LNP09, pH=5, day 5) | Compound
1 | inhibited | – | Cc1cc(C(C)(C)C)c(O)c(C(C)(C)C)c1 [BHT, butylated hydroxytoluene]
2 | inhibited | reverse effect | vitamin E
